Converted amounts (≈) assume the structure as drawn. Where two headings read alike, the source gives them in different places.
Key:
S. aureus biofilm = test: Biofilm inhibition assay (MBIC, MTT); assay type: cell-based, Staphylococcus aureus; conditions: Staphylococcus aureus, 24 h; geometric mean, S. aureus (n = 3)
Description: (§1) The biofilm formation inhibitory activity of NPs and ATBs was carried out according to the method previously described. A total of 100 µL of bacterial inoculum (1.5 × 10^6 CFU/mL) was used, and 100 µL of each sample was added to the microplate to achieve final concentrations ranging from 0.25 µg/mL to 128 µg/mL for ATBs and from 8 µg/mL to 1024 µg/mL for NPs. Then, the microplate was incubated at 37°C for 24 h. After incubation, the plates were gently emptied and washed three times with a phosphate buffer solution at pH 7.2. Then, the MTT solution (0.5 mg/mL) prepared in PBS was introduced into each well, and the microplate was further incubated at 37°C for 24 h. Untreated wells containing bacterial suspension and MHB supplemented with 1% glucose were considered positive controls, and wells containing only MHB+1% glucose without bacteria were used as blanks. After incubation, the MTT solution was aspirated, then 150 µL of DMSO was introduced to dissolve the formazan crystal formed by viable bacteria, and the optical density (OD) was measured at 570 nm using a microplate reader (VERSA-max). The percentage of biofilm inhibition was calculated using the formula below, and the minimal biofilm inhibitory concentration (MBIC) was recorded as the lowest concentration of NPs or ATBs that inhibited 100% of biofilm:(1) % biofilm inhibition=ODcontrol−ODblank−ODtest−ODblank/ODcontrol−ODblank×100.

S. epidermidis biofilm [1] = test: Biofilm inhibition assay (MBIC, MTT); assay type: cell-based, Staphylococcus epidermidis; conditions: Staphylococcus epidermidis, 24 h; geometric mean, S. epidermidis (n = 3)
Description: as §1

S. epidermidis biofilm [2] = test: Biofilm eradication assay (MBEC, MTT); assay type: cell-based, Staphylococcus epidermidis; conditions: Staphylococcus epidermidis, 24 h; geometric mean, S. epidermidis (n = 3)
Description: (§2) The determination of the biofilm eradication potential of NPs and ATBs was performed as previously described. Briefly, 100 µL of bacterial inoculum (1.5 × 10^6 CFU/mL) and 100 µL of MHB + 1% glucose were introduced into the microplate, incubated at 37°C for 24 h, and the microplate was gently emptied and washed three times with PBS. Then, 200 µL of ATBs or NPs at respective concentrations ranging from 8 to 1024 µg/mL and from 16 to 2048 µg/mL were incubated at 37°C for 24 h. Once incubation was completed, the microplate was processed as described above, and the percentage of biofilm eradication was calculated using the formula below. The minimal biofilm eradicating concentration (MBEC) was recorded as the lowest concentration of the test sample that reduces 100% of biofilm:(2) % biofilm eradication=ODcontrol−ODblank−ODtest−ODblank/ODcontrol−ODblank×100.

[3] = test system: Staphylococcus saprophyticus biofilm; test: Checkerboard combination assay, biofilm inhibition; assay type: cell-based
Description: (§3) The effect of the combination of ATBs with NPs on biofilm formation was evaluated by determining the FICI, as described above for planktonic cells, except that the MHB was supplemented with 1% glucose.
(§4) The lowest MBICs of ATBs or NPs that inhibited metabolic activity in the biofilm were determined as described above. The FICI was used to perform the effect of combination and calculated as follows: FICI: (MBIC of ATBs in combinations/MBIC of ATBs alone) + (MBIC of NP in the combinations/MBIC of NP alone). FICI was interpreted as indicated above.

[4] = test system: Staphylococcus aureus biofilm; test: Checkerboard combination assay, biofilm inhibition; assay type: cell-based
Description: as §3, §4

[5] = test system: Staphylococcus epidermidis biofilm; test: Checkerboard combination assay, biofilm inhibition; assay type: cell-based
Description: as §3, §4

S. aureus = test: MIC and MBC, broth microdilution; assay type: cell-based, Staphylococcus aureus; conditions: Staphylococcus aureus, geometric mean, S. aureus (n = 3); for MIC: read-out: MIC; for MBC: read-out: MBC
Description: Seven clinical isolates of Staphylococcus spp. including 2 S. aureus, 3 S. saprophyticus, and 2 S. epidermidis were used. They were isolated from urine samples in our previous study. Two reference strains (S. aureus ATCC1026 and S. epidermidis ATCC35984) obtained from the American Type Culture Collection were also included. They were kept in the mixture of glycerol and Mueller Hinton Broth (MHB) (1:1) at −20°C, and the activation was achieved using the streak technique on Mueller Hinton agar (MHA) medium.
The MICs of ATBs and NPs were determined by the broth microdilution method as previously described. NPs and ATBs were, respectively, prepared at 4096 µg/mL and 512 µg/mL and serially diluted twofold with MHB in a 96-well microplate at a volume of 100 µL. Then, the wells were filled with 100 µL of inoculum (1.5 × 10^6 CFU/mL) to give final concentrations ranging from 1024 µg/mL to 0.5 µg/mL and 128 µg/mL to 0.062 µg/mL of NPs and ATBs, respectively. The microplates were incubated for 24 h at 37°C. Wells containing only bacterial inoculum were used as the negative control. After incubation, a volume of 40 µL of INT solution (0.2 mg/mL) was added to each well, and the microplate was incubated at 37°C for 30 min. Viable bacteria cells change the yellow dye of INT to a pink color. The MIC was considered as the lowest concentration of the sample at which there was no change in the coloration of the medium, corresponding to the complete inhibition of microbial growth.
All tests were performed in triplicate.

S. saprophyticus biofilm [6] = test: Biofilm eradication assay (MBEC, MTT); assay type: cell-based, Staphylococcus saprophyticus; conditions: Staphylococcus saprophyticus, 24 h; geometric mean, S. saprophyticus (n = 3)
Description: as §2

S. saprophyticus biofilm [7] = test: Biofilm inhibition assay (MBIC, MTT); assay type: cell-based, Staphylococcus saprophyticus; conditions: Staphylococcus saprophyticus, 24 h; geometric mean, S. saprophyticus (n = 3)
Description: as §1

[8] = natural product alone, S. saprophyticus biofilm inhibition
[9] = natural product alone, S. aureus biofilm inhibition
[10] = natural product alone, S. epidermidis biofilm inhibition

SMILES | minimal effective concentration (S. aureus biofilm) | minimal effective concentration (S. epidermidis biofilm [1]) | minimal effective concentration (S. epidermidis biofilm [2]) | MBIC alone, NPs ([3]; S. saprophyticus, biofilm inhibition, mean) | MBIC alone, NPs [3, 8] | MBIC alone, NPs ([4]; S. aureus, biofilm inhibition, mean) | MBIC alone, NPs [4, 9] | MBIC alone, NPs ([5]; S. epidermidis, biofilm inhibition, mean) | MBIC alone, NPs [5, 10] | MIC (S. aureus) | MBC (S. aureus; natural products) | minimal effective concentration (S. saprophyticus biofilm [6]) | minimal effective concentration (S. saprophyticus biofilm [7]) | MBIC alone, ATB ([3]; antibiotic alone, S. saprophyticus biofilm inhibition) | MBIC alone, ATB ([4]; antibiotic alone, S. aureus biofilm inhibition) | MBIC alone, ATB ([5]; antibiotic alone, S. epidermidis biofilm inhibition) | MBC (S. aureus; antibiotics)
Cc1ccc(C(C)C)c(O)c1 [Thymol, thymol] | 341 µg/mL | 213 µg/mL | 107 µg/mL | 128 µg/mL | 128 µg/mL | 341.33 µg/mL | 341.33 µg/mL | 213.33 µg/mL | 213.33 µg/mL | 299 mg/L (≈ 1990 µM) | > 1020 mg/L | 107 µg/mL | 128 µg/mL | – | – | – | –
O=C(O)c1cc(O)c(O)c(O)c1 [Gallic acid, 3,4,5-trihydroxybenzoic acid] | 512 µg/mL | 512 µg/mL | 267 µg/mL | – | 426.66 µg/mL | – | 512 µg/mL | – | 512 µg/mL | 427 mg/L (≈ 2510 µM) | > 1020 mg/L | 299 µg/mL | 427 µg/mL | – | – | – | –
CC[C@H]1OC(=O)[C@H](C)[C@@H](O[C@H]2C[C@@](C)(OC)[C@@H](O)[C@H](C)O2)[C@H](C)[C@@H](O[C@@H]2O[C@H](C)C[C@H](N(C)C)[C@H]2O)[C@](C)(O)C[C@@H](C)C(=O)[C@H](C)[C@@H](O)[C@]1(C)O [Erythromycin, erythromycin] | 42.8 µg/mL | 24 µg/mL | 18.7 µg/mL | – | – | – | – | – | – | 108 mg/L (≈ 147 µM) | – | 29.3 µg/mL | 27.3 µg/mL | 27.33 µg/mL | 42.83 µg/mL | 24 µg/mL | > 128 mg/L

Source: article PMC12339163, “Combining Plant Bioactives With Antibiotics for Enhanced Antibiofilm Activity Against Uropathogenic Staphylococcus spp. and Cytotoxicity Evaluation” (Advances in Pharmacological and Pharmaceutical Sciences, 2025)
